Data published in ChEMBL document CHEMBL3632467, “Tyrokeradines G and H, new bromotyrosine alkaloids from an Okinawan Verongid sponge” (Bioorg Med Chem Lett, 2015).
≈ marks a conversion by molar mass, not a printed value.

Experiments:
Staphylococcus aureus = assay: Antibacterial activity against Staphylococcus aureus; format: functional
[1] = test system: Trichophyton mentagrophytes; assay: Antifungal activity against Trichophyton mentagrophytes; format: functional, organism-based
Aspergillus niger = assay: Antifungal activity against Aspergillus niger; format: functional, organism-based
Escherichia coli = assay: Antibacterial activity against Escherichia coli; format: functional
Micrococcus luteus = assay: Antibacterial activity against Micrococcus luteus; format: functional
Candida albicans = assay: Antifungal activity against Candida albicans; format: functional, organism-based
Cryptococcus neoformans = assay: Antifungal activity against Cryptococcus neoformans; format: functional, organism-based
Bacillus subtilis = assay: Antibacterial activity against Bacillus subtilis; format: functional

Row | Structure (SMILES) | MIC (Staphylococcus aureus) [µg/mL] | IC50 [1] [µg/mL] | IC50 (Aspergillus niger) [µg/mL] | MIC (Escherichia coli) [µg/mL] | MIC (Micrococcus luteus) [µg/mL] | IC50 (Candida albicans) [µg/mL] | IC50 (Cryptococcus neoformans) [µg/mL] | MIC (Bacillus subtilis) [µg/mL]
1 | O=C(O)/C(Cc1cc(Br)c(OCCC[n+]2ccccc2)c(Br)c1)=N/O | > 32 | > 32 | 32 | > 32 | > 32 | > 32 | > 32 | > 32
2 | NCCCOc1c(Br)cc(C/C(=N\O)C(=O)NCCC(=O)O)cc1Br | > 32 | > 32 | 32 (≈ 66.5 µM) | > 32 | > 32 | > 32 | 16 (≈ 33.3 µM) | > 32
